Where two headings read alike, the source gives them in different places.

This is an account of results in patent US8393321B2, “Drug delivery system for conscious sedation” (Piramal Critical Care, Inc., priority 2001, dated 2013).

Series [1] relates to patients. The series is described as follows: Conscious sedation (CS) level, MAC equivalent of 70% nitrous oxide. It counts as in vivo, human. How it is done: The concentration of oxygen in the atmosphere approximates 21%. […] The most common ratio is 70% N2O/30% oxygen, although some delivery systems maintain 50% oxygen.
The potency of anesthetic agents is measured by the minimum alveolar concentration of an anesthetic producing immobility in 50% of patients, defined as 39 year old males, undergoing surgical incision (“MAC”). […] In present inhalant conscious sedation systems, nitrous oxide is delivered in conjunction with a minimum of 30% oxygen to insure the patient maintains a sufficient level of oxygen. […] For this description a MAC equivalent of 70% nitrous oxide will be used for comparison with other inhalants, as shown in Table 2.

Series [2] deals with patients. Particulars: in 100% oxygen for middle-aged men, cited from earlier work.
The conditions of series [3]: soda lime (calcium hydroxide) and/or UV light; cited from earlier work.
In another series the test system is patient. Conditions: conscious sedation; cited from earlier work.
Series [4] deals with patients. Conditions: N2O with oxygen; cited from earlier work.

With `FC(F)OC(F)C(F)(F)F` (stereo not shown) [Desflurane], the “Implied CS Level” value with patients [1] (in vivo) worked out at 3.82%. Moreover, the MAC with patients [2] is 6.00%.

As to `FC(F)OC(F)(F)C(F)Cl` (stereo not shown) [Enflurane], the “Implied CS Level” value in the series on patients [1] (in vivo) stood at 1.07%. The MAC with patients [2] was 1.68%.

`FC(F)(F)C(Cl)Br` (stereo not shown) [Halothane]: in the series on patients [1] (in vivo), the “Implied CS Level” value came out at 0.48%. Further, the MAC in the series on patients [2] was 0.75%. In addition, the “decomposition in presence of soda lime and/or UV light” value (from here on “decomposition in presence”) in series [3] was “decompose”.

Regarding `CN1C(=O)CN=C(c2ccccc2)c2cc(Cl)ccc21` [IV Diazepam, Diazepam], in the series with patient, the “Abuse Potential” value is listed as “Controlled” and the “Safety Profile” value is recorded as “Moderate”.

`Cc1ncc2n1-c1ccc(Cl)cc1C(c1ccccc1F)=NC2` [IV Midazolam, Midazolam]: in the series on patient, the “Abuse Potential” value was “Controlled” and the “Safety Profile” value was “Moderate”.

Regarding `FC(F)OC(Cl)C(F)(F)F` (stereo not shown) [Isoflurane], the “Implied CS Level” value in the series with patients [1] (in vivo) came to 0.73%. Besides, the MAC in the series on patients [2] is 1.15%.

`COC(F)(F)C(Cl)Cl` [Methoxyflurane]: the “Implied CS Level” value in the series on patients [1] (MAC equivalent of 70% nitrous oxide (.636)) is 0.11%. For the same molecule, the MAC in the series with patients [2] and in the series with patients [2] (listed as methoxyflurane) was 0.16% each time. In series [3], the “decomposition in presence” value was “decompose”.

For the molecule `[N-]=[N+]=O` [Nitrous Oxide], in the series with patients [1] (in vivo), the “Implied CS Level” value was found to be 70.00%, the “MAC Equivalent” value was “.636” and the “Minimum Alveolar Content (MAC) of 70% N2O/30% oxygen mixture” value came to 0.636 MAC. In addition, the MAC in the series with patients [2] is 110.00%. In addition, the MAC in the series on patients [2] (listed as nitrous oxide) is on record as 110%. Besides, the “mixture concentration at which conscious sedation occurs in most patients” value in the series with patients [4] is recorded as 70%. In addition, in the series on patient, the “Abuse Potential” value is given as “Recre-” and the “Safety Profile” value is recorded as “Teratogenic”.

Take `FCOC(C(F)(F)F)C(F)(F)F` [Sevoflurane]: in the series on patients [1] (in vivo), the “Implied CS Level” value was 1.27%. In addition, the MAC in the series with patients [2] is on record as 2.00%. Moreover, in series [3], the “decomposition in presence” value is “decompose”.
